Source: US8772292B2, “Process for the preparation of a medicament comprising vardenafil hydrochloride trihydrate” (Ratiopharm GmbH, priority 2007, dated 2014)
Where a name gives a salt, the structure may show the parent alone.

Assay: Raman spectra after processing steps (hydrate stability in tablets)
Assay type: physicochemical
Method: Vardenafil hydrochloride trihydrate and anhydrate can be identified and distinguished from one another e.g. by means of Raman spectroscopy.
Raman spectra were recorded after the processing steps of precompacting, subsequent mixing, pressing and coating (FIGS. 1 and 2). For this, the film was scratched off from the film-coated tablets beforehand. The Raman spectra of the pure vardenafil hydrochloride trihydrate and of the anhydrate are also shown for comparison.
In the relevant range of 1694-1702 cm^−1, the auxiliaries used in Example 1 had no influence on the vardenafil bands (measurement on a placebo tablet is not also shown).

## CCCc1nc(C)c2c(=O)[nH]c(-c3cc(S(=O)(=O)N4CCN(CC)CC4)ccc3OCC)nn12 [Vardenafil hydrochloride trihydrate, {2-ethoxy-5-[(4-ethyl-1-piperazinyl)sulfonyl]phenyl}-5-methyl-7-propylimidazo-[5,1-f][1,2,4]triazin-4(3H)one]
Example 4: coating at intake air temperature of 60-65° C.
  stability of the hydrate under the processing conditions: dehydrated
Examples 1 to 3: approx. 23° C., 33-35% rel. humidity, coating intake air 45° C.
  stability of the hydrate under the processing conditions: stable
